Reference: publication PMC7997032, “Organic synthesis and anti-influenza A virus activity of cyclobakuchiols A, B, C, and D” (PLoS ONE, 2021)
Where “and” joins values, the source holds several entries; their conditions need not be identical. Equal entries are not always repeated.

Columns and labels:
A/PR/8/34 virus [1] = test: RT-qPCR of viral mRNAs (NP, NS1, PA, PB1, PB2, M2) in infected MDCK cells; format: cell-based, influenza A H1N1 virus
A/PR/8/34 virus [2] = format: cell-based; conditions: 12.5 μM, 24h WB
[3] = system: NAD(P)H quinone oxidoreductase 1 (Nqo1); test: RT-qPCR of Nqo1 mRNA in MDCK cells with or without A/PR/8/34 virus; format: cell-based, canine; conditions: 12.5uM, MDCK, relative to virus - DMSO; for NQO1 Canis lupus mRNA, ave: ave of #1-3 exp; for NQO1 Canis lupus mRNA, individual replicates: replicates 1-3 of #1, #2, #3 exp, listed as Cyclobakuchiol C
A/PR/8/34 virus [4] = test: Influenza A viral growth assay (viral titer of culture media); format: cell-based, influenza A H1N1 virus; parameters: viral titer of culture media, individual replicate / viral titer of culture media, ave: unit not given here; conditions: A/PR/8/34 (PR8), 12.5uM, average of #1-3 exp (n=9)
A/WSN/33 virus [5] = test: Immunofluorescence staining of viral NP in influenza A virus-infected MDCK cells; conditions: WSN
A/WSN/33 virus [6] = test: Influenza A viral growth assay (viral titer of culture media); format: cell-based, influenza A H1N1 virus; conditions: A/WSN/33 (WSN), 12.5uM, average of #1-3 exp (n=9)
[7] = system: canine interferon-β (Ifn-β); test: RT-qPCR of Ifn-β mRNA in MDCK cells with or without A/PR/8/34 virus; format: cell-based; conditions: 12.5uM, relative to virus - DMSO; for MDCK IFN-b mRNA, ave: ave of #1-3 exp; for MDCK IFN-b mRNA, individual replicates: replicates 1-3 of #1, #2, #3 exp, listed as Cyclobakuchiol C
A/PR/8/34 virus [8] = test: Immunofluorescence staining of viral NP in influenza A virus-infected MDCK cells; conditions: for NP/DAPI (%) ave: average of 9 wells
Description: MDCK cells were seeded on a 96-well plate at 1 × 10^4 cells/well. […] Each mixture was added to the cells at 37°C in the presence of 5% CO2. […] After influenza A viral infection for 24 h, the cells were fixed with 4% paraformaldehyde in phosphate-buffered saline (PBS) for 30 min at 4°C and subsequently permeabilized by the addition of 0.3% Triton X-100 for 20 min at 25°C. A mouse primary antibody was used to detect the NP of A/PR/8/34 or A/WSN/33 viruses (FluA-NP 4F1; SouthernBiotech, AL, USA). Alexa Fluor488-conjugated goat anti-mouse IgG (H + L) antibody (Thermo Fisher Scientific) was used as the secondary antibody. Cell nuclei were then stained using diamidino-2-phenylindole (DAPI) (Thermo Fisher Scientific). Wells were photographed using a fluorescence microscope (BIOREVO BZ-X700; Keyence, Osaka, Japan). The proportion of influenza A NP-positive cells per DAPI-positive cells was calculated based on measurements recorded using BZ-X Analyzer software (Keyence).

Nrf2 = Nrf2 reporter assay (dual luciferase system) in MDCK cells; format: cell-based, canine; conditions: 12.5uM, relative to DMSO trans+
Description: An Nrf2 reporter assay based on the dual luciferase system was performed as previously described. The plasmid pNQO1-ARE (antioxidant response element)-Fluc, provided by Yamamoto M., expressed a Firefly luciferase gene driven by Nrf2 activation, while the plasmid pRL-TK-Rluc vector (Promega, CA, USA) expressed a Renilla luciferase gene driven by the herpes simplex viral thymidine kinase promoter as an internal control. MDCK cells were seeded in a 24-well plate at 1 × 10^5 cells/well and transfected with pNQO1-ARE-luc (0.25 μg) and pRL-TK-Rluc (0.25 μg). At 24 h post-transfection, the cells were treated with 12.5 μM cyclobakuchiols A–D in the infection medium at 37°C under 5% CO2. DMSO (0.125%) and 12.5 μM 1 were used as negative and positive controls, respectively. Total RNA was extracted from the MDCK cell lysates after 24 h of incubation. The levels of Firefly and Renilla luciferase mRNAs were analyzed by RT-qPCR and normalized to that of β-actin mRNA.

[9] = MDCK cells, PR8 virus, relative to DMSO (about 1), ave of #1-3 exp (9 values)
[10] = MDCK cells, PR8 virus, relative to DMSO, replicates 1-3 of #1, #2, #3 exp, listed as Cyclobakuchiol C
[11] = single experiment, listed as cyclo C

Question: Which results are given for C=C[C@]1(C)CCC(C(C)(C)O)C(c2ccc(O)cc2)C1 (stereo in doubt) [cyclobakuchiol C]?
Answer: PR8 NP gene expression qPCR, ave (A/PR/8/34 virus [1]; MDCK PR8, NP mRNA, relative (DMSO about 1), average of #1-3 exp (n=9)): 0.0715; PR8 NP gene expression qPCR, individual replicate (A/PR/8/34 virus [1]; MDCK PR8, NP mRNA, relative (DMSO about 1), replicates of #1-3 exp, listed as Cyclobakuchiol C): 0.02965 and 0.0515 and 0.04036 and 0.08601 and 0.1343 and 0.1201 and 0.1206 and 0.03078 and 0.03024; PR8 NS1 gene expression qPCR, ave (A/PR/8/34 virus [1]; MDCK PR8, NS1 mRNA, relative (DMSO about 1), average of #1-3 exp (n=9)): 0.04238; PR8 NS1 gene expression qPCR, individual replicate (A/PR/8/34 virus [1]; MDCK PR8, NS1 mRNA, relative (DMSO about 1), replicates of #1-3 exp, listed as Cyclobakuchiol C): 0.02453 and 0.03462 and 0.02897 and 0.02312 and 0.08062 and 0.06227 and 0.07687 and 0.03138 and 0.01906; PR8 PA gene expression qPCR, ave (A/PR/8/34 virus [1]; MDCK PR8, PA mRNA, relative (DMSO about 1), average of #1-3 exp (n=9)): 0.04976; PR8 PA gene expression qPCR, individual replicate (A/PR/8/34 virus [1]; MDCK PR8, PA mRNA, relative (DMSO about 1), replicates of #1-3 exp, listed as Cyclobakuchiol C): 0.02841 and 0.03504 and 0.0209 and 0.04366 and 0.1014 and 0.08076 and 0.0804 and 0.03232 and 0.02491; PR8 M2 gene expression qPCR, ave (A/PR/8/34 virus [1]; [9]): 0.05203; PR8 PB1 gene expression qPCR, ave (A/PR/8/34 virus [1]; [9]): 0.0394; PR8 PB2 gene expression qPCR, ave (A/PR/8/34 virus [1]; [9]): 0.05178; PR8 M2 gene expression qPCR, individual replicates (A/PR/8/34 virus [1]; [10]): 0.02539 and 0.04593 and 0.02488 and 0.06301 and 0.1078 and 0.07697 and 0.07009 and 0.03046 and 0.02377; PR8 PB1 gene expression qPCR, individual replicates (A/PR/8/34 virus [1]; [10]): 0.02851 and 0.01826 and 0.01255 and 0.01866 and 0.09078 and 0.07015 and 0.07353 and 0.02182 and 0.02034; PR8 PB2 gene expression qPCR, individual replicates (A/PR/8/34 virus [1]; [10]): 0.02749 and 0.04527 and 0.0229 and 0.05473 and 0.1042 and 0.07786 and 0.07787 and 0.03099 and 0.02468; NP/b-actin ave (A/PR/8/34 virus [2]; average of 3 experiments): 0.8052; NS1/b-actin ave (A/PR/8/34 virus [2]; average of 3 experiments): 0.5534; NP mean (western blot signal intensity, ImageJ) (A/PR/8/34 virus [2]; [11]): 91.764 and 95.052 and 111.845; NP/b-actin (A/PR/8/34 virus [2]; [11]): 0.819 and 0.7 and 0.8964; NS1/b-actin (A/PR/8/34 virus [2]; [11]): 0.4287 and 0.5327 and 0.6988; NS1 mean (western blot signal intensity, ImageJ) (A/PR/8/34 virus [2]; [11]): 69.827 and 74.096 and 58.545; NQO1 Canis lupus mRNA, ave ([3]; virus + (PR8)): 1.3; NQO1 Canis lupus mRNA, individual replicates ([3]; virus + (PR8)): 1.5721 and 1.53 and 1.546 and 1.742 and 0.864 and 0.8958 and 0.9507 and 1.371 and 1.2312; NQO1 Canis lupus mRNA, ave ([3]; virus -): 1.195; NQO1 Canis lupus mRNA, individual replicates ([3]; virus -): 1.246 and 1.375 and 1.298 and 1.334 and 1.006 and 1.078 and 1.116 and 1.24 and 1.059; viral titer of culture media, ave (A/PR/8/34 virus [4]; 12h): 33333.3; viral titer of culture media, ave (A/PR/8/34 virus [4]; 24h): 52222.2; viral titer of culture media, ave (A/PR/8/34 virus [4]; 48h): 37777.8; viral titer of culture media, ave (A/PR/8/34 virus [4]; 72h): 43333.3; NP/DAPI (%) ave (A/WSN/33 virus [5]; 3.13uM, ave of 9 values (3 exp)): 25.0115%; NP/DAPI (%) ave (A/WSN/33 virus [5]; 6.25uM, ave of 9 values (3 exp)): 26.7813%; NP/DAPI (%) ave (A/WSN/33 virus [5]; 12.5uM, ave of 9 values (3 exp)): 26.2263%; NP/DAPI (%) ave (A/WSN/33 virus [5]; 25uM, ave of 9 values (3 exp)): 34.9195%; NP/DAPI (%) ave (A/WSN/33 virus [5]; ave summary, 3.13%): 25.0115%; NP/DAPI (%) ave (A/WSN/33 virus [5]; ave summary, 6.25%): 26.7813%; NP/DAPI (%) ave (A/WSN/33 virus [5]; ave summary, 12.50%): 26.2263%; NP/DAPI (%) ave (A/WSN/33 virus [5]; ave summary, 25%): 34.9195%; viral titer of culture media, ave (A/WSN/33 virus [6]; 12h): 8288.89; viral titer of culture media, ave (A/WSN/33 virus [6]; 24h): 21277778; viral titer of culture media, ave (A/WSN/33 virus [6]; 48h): 246888889; viral titer of culture media, ave (A/WSN/33 virus [6]; 72h): 155211111; MDCK IFN-b mRNA, ave ([7]; virus +): 8.927; MDCK IFN-b mRNA, individual replicates ([7]; virus +): 3.309 and 15.7023 and 10.0086 and 14.1468 and 10.7403 and 6.351 and 9.878 and 6.251 and 3.957; MDCK IFN-b mRNA, ave ([7]; virus -): 1.684; MDCK IFN-b mRNA, individual replicates ([7]; virus -): 0.8094 and 4.073 and 2.562 and 3.148 and 0.7696 and 1.281 and 1.389 and 0.8375 and 0.2824; NP/DAPI (%) ave (A/PR/8/34 virus [8]; A/PR/8/34, 3.13 uM): 6.545%; NP/DAPI (%) ave (A/PR/8/34 virus [8]; A/PR/8/34, 6.25 uM): 2.732%; NP/DAPI (%) ave (A/PR/8/34 virus [8]; A/PR/8/34, 12.5 uM): 1.281%; NP/DAPI (%) ave (A/PR/8/34 virus [8]; A/PR/8/34, 25 uM): 1.024%; IC50 (A/PR/8/34 virus [8]; Influenza A virus, PR/8, MDCK, read-out: half maximal (50%) inhibitory concentration (IC50)): 4.6 ± 2.2 µM; pNQO1-ARE-Luc NRF2 reporter assay, ave (Nrf2; ave of #1-3 exp): 1.343; pNQO1-ARE-Luc NRF2 reporter assay, individual replicates (Nrf2; two values each of #1, #2, #3 exp, listed as Cyclobakuchiol C): 1.496 and 1.13 and 1.492 and 1.034 and 1.043 and 1.865
